Reference: ChEMBL document CHEMBL6153094, “Rationally designed highly amphipathic antimicrobial peptides demonstrating superior bacterial selectivity relative to the corresponding α-helix peptide” (Eur J Med Chem, 2025)
In brackets after ≈: the same amount, converted by molar mass.

Columns and labels:
Type in all cases: functional
Staphylococcus aureus [1] = assay: Antimicrobial activity against gentamicin-resistant Staphylococcus aureus ATCC 25923 assessed as inhibition of visible bacterial growth incubated for 18 hrs by broth-dilution method
Bacillus subtilis = assay: Antimicrobial activity against Bacillus subtilis ATCC 23857 assessed as inhibition of visible bacterial growth incubated for 18 hrs by broth microdilution method
[2] = test system: Staphylococcus epidermidis; assay: Antimicrobial activity against Staphylococcus epidermidis ATCC 12228 assessed as inhibition of visible bacterial growth incubated for 18 hrs by broth-dilution method
Klebsiella pneumoniae = assay: Antimicrobial activity against Klebsiella pneumoniae ATCC 700603 assessed as inhibition of visible bacterial growth incubated for 18 hrs by broth microdilution method
Staphylococcus aureus [3] = assay: Resistance fold, ratio of MIC for Staphylococcus aureus ATCC 25923 measured after 8th passage to MIC for Staphylococcus aureus ATCC 25923 measured immediately
Staphylococcus aureus [4] = assay: Antimicrobial activity against Staphylococcus aureus ATCC 25923 assessed as inhibition of visible bacterial growth incubated for 18 hrs by broth-dilution method
Pseudomonas aeruginosa [5] = assay: Resistance fold, ratio of MIC for Pseudomonas aeruginosa ATCC 27853 measured after 10th passage to MIC for Pseudomonas aeruginosa ATCC 27853 measured immediately
Pseudomonas aeruginosa [6] = assay: Antimicrobial activity against gentamicin-resistant Pseudomonas aeruginosa ATCC 27853 assessed as inhibition of visible bacterial growth incubated for 18 hrs by broth microdilution method
Acinetobacter baumannii = assay: Antimicrobial activity against Acinetobacter baumannii ATCC 19606 assessed as inhibition of visible bacterial growth incubated for 18 hrs by broth microdilution method
Pseudomonas aeruginosa [7] = assay: Antimicrobial activity against Pseudomonas aeruginosa ATCC 27853 assessed as inhibition of visible bacterial growth incubated for 18 hrs by broth microdilution method
Escherichia coli = assay: Antimicrobial activity against Escherichia coli ATCC 25922 assessed as inhibition of visible bacterial growth incubated for 18 hrs by broth microdilution method
Enterococcus faecalis = assay: Antimicrobial activity against Enterococcus faecalis ATCC 29212 assessed as inhibition of visible bacterial growth incubated for 18 hrs by broth-dilution method

CN[C@@H]1[C@@H](O)[C@@H](O[C@@H]2[C@@H](O)[C@H](O[C@H]3O[C@H]([C@@H](C)NC)CC[C@H]3N)[C@@H](N)C[C@H]2N)OC[C@]1(C)O [GENTAMICIN C1]
MIC (Staphylococcus aureus [1]): 32 µM (≈ 15.3 µg/mL) | MIC (Bacillus subtilis): < 1 µM | MIC [2]: < 1 µM | MIC (Klebsiella pneumoniae): 16 µM (≈ 7.64 µg/mL) | fold change (FC) (Staphylococcus aureus [3]): 32 | MIC (Staphylococcus aureus [4]): < 1 µM | fold change (FC) (Pseudomonas aeruginosa [5]): 32 | MIC (Pseudomonas aeruginosa [6]): 64 µM (≈ 30.6 µg/mL) | MIC (Acinetobacter baumannii): 16 µM (≈ 7.64 µg/mL) | MIC (Pseudomonas aeruginosa [7]): < 1 µM | MIC (Escherichia coli): 2 µM (≈ 0.955 µg/mL) | MIC (Enterococcus faecalis): 16 µM (≈ 7.64 µg/mL)
